This experiment has as its target enzyme having α-1,4 hydrolytic activity derived from Sulfolobus acidocaldarius DSM 639 (purified, about 95 kDa; EC 3.2.1.1 / amylopullulanase) (Sulfolobus acidocaldarius, UniProt Q4J9M2). Put plainly: biochemical. The procedure: In a hermetically sealed tube, 25 μl of solution C was mixed with 25 μl of water and then added to 250 μl of a solution containing 0.1% (w/v) Lintner'starch (Baker), citrate/phosphate buffer (100 mM/200 mM) at various pH values (as described in detail below). The mixture was then incubated for 15 minutes at various temperatures (see below). Incubation was terminated by transferring the tube to an ice/water bath (0° C.).
The absorbance was measured at 620 nm (Pharmacia LKB Ultraspec Plus).
A blank assay was performed by replacing the 50 μl enzyme solution C with water.
The relative activity (relative units) was calculated from the standard curve by calculation of the value [(ODb -ODs)/ODb ]×100, and then linearly extrapolating the corresponding volume (μl) from the two closest points of the standard curve.
The relative (α-1,4 hydrolytic) activity (%) is defined as the extrapolated volume value (μl), deduced from the standard curve.
Respective samples of Solution C were obtained and prepared as described above in Example 4 to perform the standard assay.
The influence of various metal cations and of EDTA on the α-1,4 hydrolytic activity of the enzyme derived from Sulfolobus acidocaldarius DSM 639 was determined by running the standard assay described above in Example 4 on each of the tubes (samples) in the presence of the additional various metal cations at a final concentration of 2, 5, and 10 mM.

The mark [1] stands for this setting: read-out: Relative activity (%).

enzyme having α-1,4 hydrolytic activity derived from Sulfolobus acidocaldarius DSM 639 (purified, about 95 kDa; EC 3.2.1.1 / amylopullulanase), sequence (Q4J9M2 1-884): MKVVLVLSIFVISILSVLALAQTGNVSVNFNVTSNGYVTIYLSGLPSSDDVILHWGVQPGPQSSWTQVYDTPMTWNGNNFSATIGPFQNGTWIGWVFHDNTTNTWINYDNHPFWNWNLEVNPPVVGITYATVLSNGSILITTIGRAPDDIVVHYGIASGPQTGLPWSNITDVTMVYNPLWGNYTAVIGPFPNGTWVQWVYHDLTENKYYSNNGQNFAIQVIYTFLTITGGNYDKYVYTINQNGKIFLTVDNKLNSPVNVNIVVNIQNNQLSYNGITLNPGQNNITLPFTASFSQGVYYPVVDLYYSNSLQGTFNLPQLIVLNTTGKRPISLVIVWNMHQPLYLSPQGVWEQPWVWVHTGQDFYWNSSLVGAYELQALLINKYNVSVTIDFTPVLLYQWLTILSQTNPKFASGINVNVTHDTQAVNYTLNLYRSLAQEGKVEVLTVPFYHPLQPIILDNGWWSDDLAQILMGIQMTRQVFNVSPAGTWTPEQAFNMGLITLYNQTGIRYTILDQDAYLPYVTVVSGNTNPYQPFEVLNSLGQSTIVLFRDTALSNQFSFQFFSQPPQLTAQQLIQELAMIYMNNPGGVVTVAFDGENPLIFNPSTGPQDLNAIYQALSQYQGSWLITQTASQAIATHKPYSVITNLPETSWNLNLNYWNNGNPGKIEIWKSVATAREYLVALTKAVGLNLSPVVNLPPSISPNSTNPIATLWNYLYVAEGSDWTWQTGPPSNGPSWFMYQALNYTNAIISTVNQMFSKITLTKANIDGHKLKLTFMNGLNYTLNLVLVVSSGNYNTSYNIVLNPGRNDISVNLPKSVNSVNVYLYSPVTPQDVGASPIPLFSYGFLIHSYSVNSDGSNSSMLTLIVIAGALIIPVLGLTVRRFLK

As for `O=C(O)CN(CCN(CC(=O)O)CC(=O)O)CC(=O)O` [EDTA], the “α-1,4 hydrolytic activity in the absence of calcium (with EDTA)” value (EDTA 2-10 mM, summary of Table 6) was “fully active”. For the same compound, under setting [1], the activity at 2000 µM is 97%, the activity at 5000 µM stood at 101% and the activity at 10000 µM is 98%.

The values above are taken from patent US6100073A, “Acid-stable and thermo-stable enzymes derived from sulfolobus species” (Genencor International, Inc., priority 1994, dated 2000).
